Where two headings read alike, the source gives them in different places.
Columns and labels:
[1] = test system: Key Broadleaf Weed and Crop Species; test: Post-emergent Test II herbicidal activity (Table 15); type: in vivo; settings: post-emergence, 336 h, 14 d; for pest or weed control at 35 g/ha: 35 g ai/ha; for pest or weed control at 70 g/ha: 70 g ai/ha; for pest or weed control at 140 g/ha: 140 g ai/ha
Outline: (§1)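 Greenhouse-grown seedlings at first/second true leaf receive a track spray at 187 L/ha, using a highest rate plus two-fold serial dilutions down to 1/16×. Watering is by subirrigation to avoid wash-off. Percent injury (0-100) is judged by eye at 14 d against untreated plants.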

[2] = test system: Key Grass and Sedge Weeds as well as Grass Crops; test: Post-emergent Test II herbicidal activity (Table 16); type: in vivo; settings: post-emergence, 336 h; for pest or weed control at 35 g/ha: 35 g ai/ha; for pest or weed control at 70 g/ha: 70 g ai/ha; for pest or weed control at 140 g/ha: 140 g ai/ha
Outline: as §1

[3] = Abutilon theophrasti, velvetleaf (Abutilon theophrasti), read-out: Visual Growth Reduction (%) 14 Days After Application, ABUTH
[4] = Amaranthus retroflexus, redroot pigweed (Amaranthus retroflexus), read-out: Visual Growth Reduction (%) 14 Days After Application, AMARE
[5] = Brassica napus, oilseed rape, canola (Brassica napus), read-out: Visual Growth Reduction (%) 14 Days After Application, BRSNN
[6] = Chenopodium album, lambsquarters (Chenopodium album), read-out: Visual Growth Reduction (%) 14 Days After Application, CHEAL
[7] = Euphorbia heterophylla, wild poinsettia (Euphorbia heterophylla), read-out: Visual Growth Reduction (%) 14 Days After Application, EPHHL
[8] = Helianthus annuus, sunflower (Helianthus annuus), read-out: Visual Growth Reduction (%) 14 Days After Application, HELAN
[9] = Cyperus esculentus, yellow nutsedge (Cyperus esculentus), 14 days after application, read-out: Visual Growth Reduction (%) 14 Days After Application CYPES
[10] = Echinochloa crus-galli, barnyardgrass (Echinochloa crus-galli), 14 days after application, read-out: Visual Growth Reduction (%) 14 Days After Application ECHCG
[11] = Oryza sativa, rice (Oryza sativa), 14 days after application, read-out: Visual Growth Reduction (%) 14 Days After Application ORYSA
[12] = Setaria faberi, giant foxtail (Setaria faberi), 14 days after application, read-out: Visual Growth Reduction (%) 14 Days After Application SETFA
[13] = Triticum aestivum, wheat, spring (Triticum aestivum), 14 days after application, read-out: Visual Growth Reduction (%) 14 Days After Application TRZAS
[14] = Zea mays, maize, corn (Zea mays), 14 days after application, read-out: Visual Growth Reduction (%) 14 Days After Application ZEAMX
[15] = Cyperus esculentus, yellow nutsedge (Cyperus esculentus), 14 d, read-out: Visual Growth Reduction (%) 14 Days After Application, CYPES
[16] = Echinochloa crus-galli, barnyardgrass (Echinochloa crus-galli), 14 d, read-out: Visual Growth Reduction (%) 14 Days After Application, ECHCG
[17] = Oryza sativa, rice (Oryza sativa), 14 d, read-out: Visual Growth Reduction (%) 14 Days After Application, ORYSA
[18] = Setaria faberi, giant foxtail (Setaria faberi), 14 d, read-out: Visual Growth Reduction (%) 14 Days After Application, SETFA
[19] = Triticum aestivum, wheat, spring (Triticum aestivum), 14 d, read-out: Visual Growth Reduction (%) 14 Days After Application, TRZAS
[20] = Zea mays, maize, corn (Zea mays), 14 d, read-out: Visual Growth Reduction (%) 14 Days After Application, ZEAMX

| melting point [°C] | SMILES | pest or weed control at 35 g/ha [1, 3] [%] | pest or weed control at 70 g/ha [1, 3] [%] | pest or weed control at 140 g/ha [1, 3] [%] | pest or weed control at 35 g/ha [1, 4] [%] | pest or weed control at 70 g/ha [1, 4] [%] | pest or weed control at 140 g/ha [1, 4] [%] | pest or weed control at 35 g/ha [1, 5] [%] | pest or weed control at 70 g/ha [1, 5] [%] | pest or weed control at 140 g/ha [1, 5] [%] | pest or weed control at 35 g/ha [1, 6] [%] | pest or weed control at 70 g/ha [1, 6] [%] | pest or weed control at 140 g/ha [1, 6] [%] | pest or weed control at 35 g/ha [1, 7] [%] | pest or weed control at 70 g/ha [1, 7] [%] | pest or weed control at 140 g/ha [1, 7] [%] | pest or weed control at 35 g/ha [1, 8] [%] | pest or weed control at 70 g/ha [1, 8] [%] | pest or weed control at 140 g/ha [1, 8] [%] | further results |
| --- | --- | --- | --- | --- | --- | --- | --- | --- | --- | --- | --- | --- | --- | --- | --- | --- | --- | --- | --- | --- |
| 134 to 136 | COc1c(N)nc(-c2ccc3ccsc3c2)nc1C(=O)O [Compound 3.21] | 0 to 29 | 30 to 44 | 45 to 59 | 95 to 100 | 95 to 100 | 95 to 100 | 75 to 84 | 85 to 94 | 95 to 100 | 85 to 94 | 85 to 94 | 95 to 100 | 75 to 84 | 85 to 94 | 95 to 100 | 60 to 74 | 60 to 74 | 75 to 84 | pest or weed control at 35 g/ha [2, 9]: 0 to 29%; pest or weed control at 70 g/ha [2, 9]: 0 to 29%; pest or weed control at 140 g/ha [2, 9]: 0 to 29%; pest or weed control at 35 g/ha [2, 10]: 75 to 84%; pest or weed control at 70 g/ha [2, 10]: 85 to 94%; pest or weed control at 140 g/ha [2, 10]: 85 to 94%; pest or weed control at 35 g/ha [2, 11]: 0 to 29%; pest or weed control at 70 g/ha [2, 11]: 30 to 44%; pest or weed control at 140 g/ha [2, 11]: 30 to 44%; pest or weed control at 35 g/ha [2, 12]: 0 to 29%; pest or weed control at 70 g/ha [2, 12]: 30 to 44%; pest or weed control at 140 g/ha [2, 12]: 60 to 74%; pest or weed control at 35 g/ha [2, 13]: 30 to 44%; pest or weed control at 70 g/ha [2, 13]: 30 to 44%; pest or weed control at 140 g/ha [2, 13]: 45 to 59%; pest or weed control at 35 g/ha [2, 14]: 30 to 44%; pest or weed control at 70 g/ha [2, 14]: 60 to 74%; pest or weed control at 140 g/ha [2, 14]: 75 to 84% |
| 98 | COC(=O)c1nc(-c2cc3ccoc3cc2F)cc(N)c1Cl [Compound 2.04] | 75 to 84 | 85 to 94 | 95 to 100 | 95 to 100 | 95 to 100 | 95 to 100 | 0 to 29 | 0 to 29 | 30 to 44 | 95 to 100 | 95 to 100 | 95 to 100 | 95 to 100 | 95 to 100 | 95 to 100 | 0 to 29 | 0 to 29 | 30 to 44 | pest or weed control at 35 g/ha [2, 15]: 0 to 29%; pest or weed control at 70 g/ha [2, 15]: 0 to 29%; pest or weed control at 140 g/ha [2, 15]: 30 to 44%; pest or weed control at 35 g/ha [2, 16]: 60 to 74%; pest or weed control at 70 g/ha [2, 16]: 95 to 100%; pest or weed control at 140 g/ha [2, 16]: 95 to 100%; pest or weed control at 35 g/ha [2, 17]: 0 to 29%; pest or weed control at 70 g/ha [2, 17]: 0 to 29%; pest or weed control at 140 g/ha [2, 17]: 0 to 29%; pest or weed control at 35 g/ha [2, 18]: 60 to 74%; pest or weed control at 70 g/ha [2, 18]: 75 to 84%; pest or weed control at 140 g/ha [2, 18]: 85 to 94%; pest or weed control at 35 g/ha [2, 19]: 0 to 29%; pest or weed control at 70 g/ha [2, 19]: 30 to 44%; pest or weed control at 140 g/ha [2, 19]: 45 to 59%; pest or weed control at 35 g/ha [2, 20]: 60 to 74%; pest or weed control at 70 g/ha [2, 20]: 75 to 84%; pest or weed control at 140 g/ha [2, 20]: 85 to 94% |

— patent publication US20170050957A1, “4-AMINO-6-(HETEROCYCLIC)PICOLINATES AND 6-AMINO-2-(HETEROCYCLIC)PYRIMIDINE-4-CARBOXYLATES AND THEIR USE AS HERBICIDES” (Dow AgroSciences LLC, priority 2013, published 2017)
